We go through two compounds from patent US5278171A, “Azadecalin amides and thioamides as inhibitors of cholesterol biosynthesis” (Merrell Dow Pharmaceuticals Inc., priority 1991, dated 1994).

One experiment has as its system Oxidosqualene cyclase. The experiment is described as follows: Inhibition of Purified Oxidosqualene Cyclase (I10). Type of experiment: biochemical. The note with it: purified oxidosqualene cyclase from rat liver microsomes, 10 μM [3H]squalene monoepoxide, pH 7.4, 37° C., 40 minutes.
Experiment [1] concerns Oxidosqualene Cyclase in HepG2 Cells. The experiment is described as follows: Inhibition of Oxidosqualene Cyclase in HepG2 Cells (IC50 for the inhibition of [14C]cholesterol biosynthesis). Type of experiment: cell-based. The note with it: Homo sapiens, read-out: IC50 HepG2 Cell. As for the experimental part: 1. Inhibition of Oxidosqualene Cyclase in HepG2 Cells (IC50)
HepG2 cells, obtained from American Type Culture Collection, are seeded into plastic 6-well multiwell dishes and grown to 60-70% confluency in an atmosphere of 5%CO2 at 37° C. using Minimal Essential Media supplemented with 10% fetal bovine serum as culture media. The cells are washed and the media is replaced with one containing 10% lipoprotein-deficient serum instead of 10% fetal bovine serum. Twenty-four hours later the test compound is added to the culture media in ethanol to obtain concentrations of between 0 and 100 μM. One hour after the addition of the test compound, 2.0 μC of [^14 C]acetate is added to each well and the cells are allowed to incubate for an additional 2-3 hours. The cells are then harvested and extracted for analysis of ^14 C-labeled cholesterol, squalene monoepoxide and squalene diepoxide. These metabolites are separated and identified by a combination of high performance liquid chromatography and flow-through liquid scintillation spectroscopy. An IC50 for the inhibition of [^14 C]cholesterol biosynthesis is calculated based on the radioactivity in controls and treated cells.

As for `CC(C)CCSCCCCC(=O)N1CC[C@H]2[C@H](C)[C@@H](O)CC[C@]2(C)C1` (relative stereo) [Example 100905, N-[1-Oxo-5-(3-methylbutylmercapto)pentyl]-8-aza-4α,10-dimethyl-trans-decal-3β-ol], the “I10 purified enzyme (percent inhibition of oxidosqualene cyclase activity at 10 μM test compound)” value in the experiment with Oxidosqualene cyclase is 100%. Besides, the IC50 in experiment [1] is 52 µM. `CCCCCCCCCCCC(=O)N1CC[C@H]2[C@H](C)[C@@H](O)CC[C@]2(C)C1` (relative stereo) [Example 102417, N-(1-Oxododecyl)-8-aza-4α,10-dimethyl-trans-decal-3β-ol]: in experiment [1], the IC50 worked out at 0.7 µM.

Usually IC50 stands for the concentration that inhibits the measured activity by half.
